Experimental data reported in article PMC8388771, “Cationic Peptidomimetic Amphiphiles Having a N-Aryl- or N-Naphthyl-1,2,3-Triazole Core Structure Targeting Clostridioides (Clostridium) difficile: Synthesis, Antibacterial Evaluation, and an In Vivo C. difficile Infection Model” (Antibiotics, 2021).
≈ marks a conversion by molar mass, not a printed value. Read-outs that look alike come from different tables or passages of the source.

Columns and labels:
[1] = test system: C. difficile ATCC 700057; assay: Primary MIC assay, C. difficile ATCC 700057; type: cell-based, Clostridioides difficile; conditions: Clostridioides difficile
Procedure: (§1) The N-arytriazole and N-naphthyltriazole peptidomimetics were subjected to antimicrobial screening. […] Vancomycin, colistin, fluconazole, and tamoxifen were used as positive controls (see Table 1 for details).
(§2) Primary screening (Gram-positive bacteria). Primary MIC assays were performed as described by the Clinical and Laboratory Standards Institute for aerobic and anaerobic bacteria. MIC values for vancomycin were within acceptable QC ranges.

[2] = test system: E. faecalis ATCC 29212; assay: Primary MIC assay, E. faecalis ATCC 29212; type: cell-based, Enterococcus faecalis; conditions: Enterococcus faecalis
Procedure: as §1, §2

[3] = test system: C. albicans ATCC 90028; assay: CO-ADD MIC assay, C. albicans ATCC 90028; type: cell-based; conditions: Candida albicans, ATCC90028, Table S1
Source text: as §1
(§3) Secondary screening (MRSA and Gram-negative bacteria) and cytotoxicity assay–performed by the Community for Open Antimicrobial Drug Discovery (CO-ADD). Samples were provided to CO-ADD [29] for antimicrobial screening by whole cell growth inhibition assays.

[4] = test system: E. coli ATCC 25922; assay: Primary MIC assay, E. coli ATCC 25922; type: cell-based; conditions: for MIC: Escherichia coli
[5] = test system: S. aureus ATCC 29213; assay: Primary MIC assay, S. aureus ATCC 29213; type: cell-based; conditions: Staphylococcus aureus
Procedure: as §1, §2

[6] = test system: Cryptococcus neoformans var. grubii ATCC 208821; assay: CO-ADD MIC assay, C. neoformans var. grubii ATCC 208821; type: cell-based; conditions: for MIC: Cryptococcus neoformans, ATCC208821, Table S1
Source text: as §1, §3

[7] = Cytotoxicity (CC50) assay by CO-ADD; type: cell-based, human; conditions: human, HEK293 cells (ATCC CRL-1573); Table 1; cytotoxicity on HEK293 cells, tested at ≤32 µg/mL
Source text: as §1, §3
Cytotoxicity Assay. These were performed as described previously.

[8] = test system: K. pneumoniae ATCC 700603; assay: CO-ADD MIC assay, K. pneumoniae ATCC 700603; type: cell-based; conditions: for MIC: Klebsiella pneumoniae, ATCC700603, Table S1, multi-drug resistant
Source text: as §1, §3
(§4) Bacterial Inhibition–MIC Assay. These were performed as described previously.

[9] = test system: C. difficile 132 (RT027); assay: Primary MIC assay, C. difficile 132 (RT027); type: cell-based, Clostridioides difficile; conditions: Clostridioides difficile, read-out: MIC C. difficile 132 (RT027)
Procedure: as §1, §2

[10] = test system: E. coli ATCC 25922; assay: CO-ADD MIC assay, E. coli ATCC 25922; type: cell-based; conditions: for MIC: Escherichia coli, ATCC25922, Table S1
Source text: as §1, §3, §4

[11] = test system: S. aureus ATCC 43300; assay: CO-ADD MIC assay, S. aureus ATCC 43300 (MRSA); type: cell-based; conditions: Staphylococcus aureus, read-out: MIC S. aureus ATCC 43300
Source text: as §1, §3, §4

[12] = test system: human erythrocytes; assay: Hemolysis assay, HC50 determination; type: cell-based
Procedure: Hemolysis assay (human erythrocytes)–HC50 determination. These were performed as described previously.

[13] = test system: S. aureus NCTC 10442; assay: Primary MIC assay, S. aureus NCTC 10442 (MRSA); type: cell-based; conditions: Staphylococcus aureus
Procedure: as §1, §2

[14] = test system: A. baumannii ATCC 19606; assay: CO-ADD MIC assay, A. baumannii ATCC 19606; type: cell-based; conditions: for MIC: Acinetobacter baumannii, ATCC19606, Table S1
Source text: as §1, §3, §4

[15] = test system: P. aeruginosa ATCC 27853; assay: CO-ADD MIC assay, P. aeruginosa ATCC 27853; type: cell-based; conditions: for MIC: Pseudomonas aeruginosa, ATCC27853, Table S1
Source text: as §1, §3, §4

[16] = test system: S. pneumoniae ATCC 49619; assay: Primary MIC assay, S. pneumoniae ATCC 49619; type: cell-based, Streptococcus pneumoniae; conditions: Streptococcus pneumoniae
Procedure: as §1, §2

[17] = ATCC700057, Table 1, read-out: MIC C. difficile ATCC 700057
[18] = ATCC29212, Table 1, read-out: MIC E. faecalis ATCC 29212
[19] = ATCC25922, Table 1, read-out: MIC E. coli ATCC 25922
[20] = ATCC29213, Table 1, read-out: MIC S. aureus ATCC 29213
[21] = Table 1, lysis of human erythrocytes
[22] = Table S1, footnote says lysis of sheep erythrocytes
[23] = Table 1, MRSA, read-out: MIC S. aureus NCTC 10442
[24] = ATCC49619, Table 1, read-out: MIC S. pneumoniae ATCC 49619

| Compound | MIC [1, 17] | MIC [2, 18] | MIC [3] | MIC [4, 19] | MIC [5, 20] | MIC [6] | CC50 [7] | MIC [8] | MIC ([9]; Table 1) | MIC [10] | MIC ([11]; Table S1, MRSA, CO-ADD) | HC50 [12, 21] | HC50 [12, 22] | MIC [13, 23] | MIC [14] | MIC [15] | MIC [16, 24] | further results |
| --- | --- | --- | --- | --- | --- | --- | --- | --- | --- | --- | --- | --- | --- | --- | --- | --- | --- | --- |
| CC(C)CCc1cn(-c2c(OCC(=O)N[C@H](CCCCN)C(=O)N[C@H](CCCNC(=N)N)Cn3cc(CC4CCCCC4)nn3)ccc3ccccc23)nn1 [Compound 41] | 16 µg/mL (≈ 21.1 µM) | 8 µg/mL (≈ 10.6 µM) | 32 µg/mL (≈ 42.3 µM) | 128 µg/mL (≈ 169 µM) | 8 µg/mL (≈ 10.6 µM) | 4 to 8 µg/mL (≈ 5.28 to 10.6 µM) | 16 µg/mL (≈ 21.1 µM) | 32 µg/mL (≈ 42.3 µM) | 16 µg/mL (≈ 21.1 µM) | 32 µg/mL (≈ 42.3 µM) | 4 µg/mL (≈ 5.28 µM) | 32 µg/mL | 32 µg/mL | 8 µg/mL (≈ 10.6 µM) | 32 µg/mL (≈ 42.3 µM) | 16 µg/mL (≈ 21.1 µM) | 16 µg/mL (≈ 21.1 µM) | MIC C. neoformans var. grubii ATCC 208821 ([6]; Table S1): 4 µg/mL (≈ 5.28 µM); MIC ([11]; Table 2, MRSA): 4 µg/mL (≈ 5.28 µM); HC50 ([12]; Table 2, footnote says lysis of sheep erythrocytes): 32 µg/mL; MIC ([13]; MRSA / NCTC 10442 / NCTC 104422, Table 2, MRSA, read-out: MIC S. aureus NCTC 104422): 8 µg/mL (≈ 10.6 µM) |
| CC(C)CCc1cnnn1-c1c(OCC(=O)N[C@H](CCCCN)C(=O)N[C@H](CCCNC(=N)N)Cn2cc(Cc3ccccc3)nn2)ccc2ccccc12.Cl.Cl [Compound 45] | 128 µg/mL | 64 µg/mL | > 32 µg/mL | 128 µg/mL | 16 µg/mL | – | > 32 µg/mL | > 32 µg/mL | 128 µg/mL | 32 µg/mL | 16 µg/mL | >32 µg/mL | > 32 µg/mL | 16 µg/mL | > 32 µg/mL | 32 µg/mL | 4 µg/mL | – |
| CC(C)CCc1cnnn1-c1ccccc1OCC(=O)N[C@H](CCCCN)C(=O)N[C@H](CCCNC(=N)N)Cn1cc(C2CCCCC2)nn1 [Compound 37] | 64 µg/mL (≈ 92.4 µM) | 16 µg/mL (≈ 23.1 µM) | 16 µg/mL (≈ 23.1 µM) | 64 µg/mL (≈ 92.4 µM) | 16 µg/mL (≈ 23.1 µM) | 16 µg/mL (≈ 23.1 µM) | > 32 µg/mL | > 32 µg/mL | 64 µg/mL (≈ 92.4 µM) | > 32 µg/mL | 16 µg/mL (≈ 23.1 µM) | >32 µg/mL | > 32 µg/mL | 32 µg/mL (≈ 46.2 µM) | > 32 µg/mL | > 32 µg/mL | 8 µg/mL (≈ 11.5 µM) | – |
| CC(C)CCc1cnnn1-c1ccccc1OCC(=O)N[C@H](CCCNC(=N)N)Cn1cc(C2CCCCC2)nn1 [Compound 14] | 128 µg/mL (≈ 227 µM) | 32 µg/mL (≈ 56.7 µM) | > 32 µg/mL | > 128 µg/mL | 32 µg/mL (≈ 56.7 µM) | 32 µg/mL (≈ 56.7 µM) | > 32 µg/mL | > 32 µg/mL | 128 µg/mL (≈ 227 µM) | > 32 µg/mL | 32 µg/mL (≈ 56.7 µM) | >32 µg/mL | > 32 µg/mL | 32 µg/mL (≈ 56.7 µM) | > 32 µg/mL | > 32 µg/mL | 32 µg/mL (≈ 56.7 µM) | – |
| CC(C)CCc1cnnn1-c1ccccc1OCC(=O)N[C@H](CCCNC(=N)N)Cn1cc(CC2CCCCC2)nn1.Cl [Compound 15] | 64 µg/mL | 16 µg/mL | > 32 µg/mL | 128 µg/mL | 16 µg/mL | 32 µg/mL | > 32 µg/mL | > 32 µg/mL | 64 µg/mL | > 32 µg/mL | 32 µg/mL | >32 µg/mL | > 32 µg/mL | 16 µg/mL | > 32 µg/mL | > 32 µg/mL | 16 µg/mL | – |
| OC(Cn1cncn1)(Cn1cncn1)c1ccc(F)cc1F [flucona-zole, fluconazole, reference compound] | – | – | 0.125 µg/mL (≈ 0.408 µM) | – | – | 0.25 µg/mL (≈ 0.816 µM) | – | – | – | – | – | – | – | – | – | – | – | – |
| CC/C(=C(\c1ccccc1)c1ccc(OCCN(C)C)cc1)c1ccccc1 [tamoxifen, reference compound] | – | – | – | – | – | – | 13.1 µg/mL (≈ 35.3 µM) | – | – | – | – | – | – | – | – | – | – | – |
| Cl.Cl.N=C(N)NCCC[C@H](Cn1cc(Cc2ccccc2)nn1)NC(=O)[C@@H](CCCCN)NC(=O)COc1ccccc1-c1cn(Cc2ccccc2)nn1 [Compound 46] | 128 µg/mL | 64 µg/mL | 32 µg/mL | 128 µg/mL | 32 µg/mL | – | > 32 µg/mL | > 32 µg/mL | 128 µg/mL | > 32 µg/mL | 16 µg/mL | >32 µg/mL | > 32 µg/mL | 32 µg/mL | > 32 µg/mL | > 32 µg/mL | 16 µg/mL | – |
| CN[C@H](CC(C)C)C(=O)N[C@H]1C(=O)N[C@@H](CC(N)=O)C(=O)N[C@H]2C(=O)N[C@H]3C(=O)N[C@H](C(=O)N[C@H](C(=O)O)c4cc(O)cc(O)c4-c4cc3ccc4O)[C@H](O)c3ccc(c(Cl)c3)Oc3cc2cc(c3O[C@@H]2O[C@H](CO)[C@@H](O)[C@H](O)[C@H]2O[C@H]2C[C@](C)(N)[C@H](O)[C@H](C)O2)Oc2ccc(cc2Cl)[C@H]1O [vanc, vancomycin, reference compound] | – | – | – | – | – | – | – | – | – | – | – | – | – | – | – | – | – | MIC ([1]; ATCC700057, read-out: MIC C. difficile ATCC 700057): 0.5 µg/mL (≈ 0.345 µM); MIC ([2]; ATCC29212, read-out: MIC E. faecalis ATCC 29212): 4 µg/mL (≈ 2.76 µM); MIC ([4]; ATCC25922, read-out: MIC E. coli ATCC 25922): > 16 µg/mL; MIC ([5]; ATCC29213, read-out: MIC S. aureus ATCC 29213): 1 µg/mL (≈ 0.69 µM); MIC [9]: 0.5 µg/mL (≈ 0.345 µM); MIC [11]: 1 µg/mL (≈ 0.69 µM); MIC ([13]; MRSA / NCTC 10442 / NCTC 104422, read-out: MIC S. aureus NCTC 104422): 1 µg/mL (≈ 0.69 µM); MIC ([13]; read-out: MIC S. aureus NCTC 10442): 1 µg/mL (≈ 0.69 µM); MIC ([16]; ATCC49619, read-out: MIC S. pneumoniae ATCC 49619): 1 µg/mL (≈ 0.69 µM) |
| colistin [reference compound] | – | – | – | – | – | – | – | – | – | – | – | – | – | – | – | – | – | MIC E. coli ATCC 25922 ([4]; Table 1): 0.125 µg/mL; MIC K. pneumoniae ATCC 700603 ([8]; Table S1, multi-drug resistant): 0.25 µg/mL; MIC E. coli ATCC 25922 ([10]; Table S1): 0.125 µg/mL; MIC A. baumannii ATCC 19606 ([14]; Table S1): 0.25 µg/mL; MIC P. aeruginosa ATCC 27853 ([15]; Table S1): 0.25 µg/mL |
